Data from PubChem BioAssay AID1259407 (Chemical Carcinogenesis Research Information System (CCRIS), 2018).
Calls of active or inactive are those of the source. The rule behind the calls is not given here.

System: CCRIS mutagenicity, Ames/micronucleus/aberration tests
Assay: CCRIS mutagenicity studies
[1] = Test System: AMES SALMONELLA TYPHIMURIUM, Strain/Indicator: TA98, Metabolic Activation: NONE, Method: STANDARD PLATE
[2] = Test System: AMES SALMONELLA TYPHIMURIUM, Strain/Indicator: TA98, Metabolic Activation: RAT, LIVER, S-9, AROCLOR 1254, Method: STANDARD PLATE
[3] = Test System: AMES SALMONELLA TYPHIMURIUM, Strain/Indicator: TA100, Metabolic Activation: NONE, Method: STANDARD PLATE
[4] = Test System: AMES SALMONELLA TYPHIMURIUM, Strain/Indicator: TA100, Metabolic Activation: RAT, LIVER, S-9, AROCLOR 1254, Method: STANDARD PLATE
[5] = Test System: AMES SALMONELLA TYPHIMURIUM, Strain/Indicator: TA1535, Metabolic Activation: NONE, Method: STANDARD PLATE

In the case of O=S(=O)(O)c1c(N=Nc2c(O)ccc3ccccc23)ccc2ccccc12, the mutagenic call (Test System: AMES SALMONELLA TYPHIMURIUM, Strain/Indicator: TA98, Metabolic Activation: HAMSTER, LIVER, S-9, AROCLOR 1254, Method: STANDARD PLATE) is reported as “active; positive”, the mutagenic call (Test System: AMES SALMONELLA TYPHIMURIUM, Strain/Indicator: TA98, Metabolic Activation: HAMSTER, LIVER, S-9, Method: PREINCUBATION (PRIVAL METHOD)) is reported as “inactive; negative” and the mutagenic call [1] is reported as “active; positive”. The mutagenic call [2] was “inactive; negative”, the mutagenic call (Test System: AMES SALMONELLA TYPHIMURIUM, Strain/Indicator: TA100, Metabolic Activation: HAMSTER, LIVER, S-9, AROCLOR 1254, Method: STANDARD PLATE) was “active; positive” and the mutagenic call [3] was “inactive; negative”. The mutagenic call [4] was “inactive; negative”, the mutagenic call (Test System: AMES SALMONELLA TYPHIMURIUM, Strain/Indicator: TA1535, Metabolic Activation: HAMSTER, LIVER, S-9, AROCLOR 1254, Method: STANDARD PLATE) was “active; positive” and the mutagenic call [5] was “inactive; negative”. The mutagenic call (Test System: AMES SALMONELLA TYPHIMURIUM, Strain/Indicator: TA1535, Metabolic Activation: RAT, LIVER, S-9, AROCLOR 1254, Method: STANDARD PLATE) was “inactive; negative”, the mutagenic call (Test System: AMES SALMONELLA TYPHIMURIUM, Strain/Indicator: TA1537, Metabolic Activation: NONE, Method: STANDARD PLATE) was “inactive; negative” and the mutagenic call (Test System: AMES SALMONELLA TYPHIMURIUM, Strain/Indicator: TA1538, Metabolic Activation: HAMSTER, LIVER, S-9, AROCLOR 1254, Method: STANDARD PLATE) was “active; positive”. For the same compound, the mutagenic call (Test System: AMES SALMONELLA TYPHIMURIUM, Strain/Indicator: TA1538, Metabolic Activation: NONE, Method: STANDARD PLATE) was “inactive; negative”, the mutagenic call (Test System: AMES SALMONELLA TYPHIMURIUM, Strain/Indicator: TA1538, Metabolic Activation: RAT, LIVER, S-9, AROCLOR 1254, Method: STANDARD PLATE) was “inactive; negative” and the mutagenic call (Test System: MOUSE LYMPHOMA, Strain/Indicator: L5178Y (TK+/TK-), Metabolic Activation: NONE, Method: SUSPENSION/PLATE) was “inactive; negative. reevaluation of results: inconclusive”. The mutagenic call (Test System: MOUSE LYMPHOMA, Strain/Indicator: L5178Y (TK+/TK-), Metabolic Activation: RAT, LIVER, S-9, AROCLOR 1254, Method: SUSPENSION/PLATE) was “inactive; negative. reevauluation of results: negative”.

In the case of NC(=O)CCC(=O)Nc1ccc(Cl)c(Cl)c1, the mutagenic call [1] is reported as “inactive; negative”, the mutagenic call [2] is reported as “inactive; negative” and the mutagenic call [3] is reported as “inactive; negative”. The mutagenic call [4] was “inactive; negative”.

For Cc1ccccc1NO, the mutagenic call [1] was “inactive; negative”, the mutagenic call (Test System: AMES SALMONELLA TYPHIMURIUM, Strain/Indicator: TA98, Metabolic Activation: RAT, LIVER, S-9, AROCLOR 1254, Method: PREINCUBATION) was “inactive; negative” and the mutagenic call [2] was “inactive; negative”. The mutagenic call [3] was “inactive; negative”, the mutagenic call [4] was “active; positive” and the mutagenic call (Test System: AMES SALMONELLA TYPHIMURIUM, Strain/Indicator: TA100, Metabolic Activation: RAT, LIVER, S-9, PCB, Method: PREINCUBATION) was “active; positive”.

For CCCCN(N=O)/C(N)=N/[N+](=O)[O-], the mutagenic call (Test System: AMES SALMONELLA TYPHIMURIUM, Strain/Indicator: TA100, Metabolic Activation: NONE, Method: PREINCUBATION) was “active; positive”, the mutagenic call (Test System: AMES SALMONELLA TYPHIMURIUM, Strain/Indicator: TA100, Metabolic Activation: RAT, LIVER, S-9, KC500 OR PHENOBARBITAL, Method: LIQUID SUSPENSION) was “active; positive” and the mutagenic call (Test System: AMES SALMONELLA TYPHIMURIUM, Strain/Indicator: TA1535, Metabolic Activation: NONE, Method: PREINCUBATION) was “active; positive”. For the same compound, the mutagenic call [5] was “active; positive”, the mutagenic call (Test System: AMES SALMONELLA TYPHIMURIUM, Strain/Indicator: TA1535, Metabolic Activation: RAT, LIVER, S-9, KC500 OR PHENOBARBITAL, Method: LIQUID SUSPENSION) was “active; positive” and the mutagenic call (Test System: AMES SALMONELLA TYPHIMURIUM, Strain/Indicator: YG7104, Metabolic Activation: NONE, Method: PREINCUBATION) was “active; positive”. The mutagenic call (Test System: AMES SALMONELLA TYPHIMURIUM, Strain/Indicator: YG7108, Metabolic Activation: NONE, Method: PREINCUBATION) was “active; positive”, the mutagenic call (Test System: AMES SALMONELLA TYPHIMURIUM, Strain/Indicator: YG7112, Metabolic Activation: NONE, Method: PREINCUBATION) was “active; positive” and the mutagenic call (Test System: AMES SALMONELLA TYPHIMURIUM, Strain/Indicator: YG7113, Metabolic Activation: NONE, Method: PREINCUBATION) was “active; positive”.

In the case of COc1c(C(=O)O)c(=O)[nH]c2ccccc12, the mutagenic call [1] is reported as “inactive; negative” and the mutagenic call (Test System: AMES SALMONELLA TYPHIMURIUM, Strain/Indicator: TA98, Metabolic Activation: RAT LIVER S-9, PHENOBARTITAL, Method: STANDARD PLATE) is reported as “inactive; negative”.
